Measurements from ChEMBL document CHEMBL1201861, “Genomics of Drug Sensitity in Cancer screening data, Wellcome Trust Sanger Institute”.

System: COR-L88;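 note: growth inhibition of COR-L88 cells, read out with a cell viability assay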
Assay: cells
Assay type: functional, cell-based, Homo sapiens
Details: Homo sapiens, COR-L88
Description: SANGER: Inhibition of human COR-L88 cell growth in a cell viability assay.

Question: Cc1cc([N+](=O)[O-])ccc1NS(=O)(=O)c1cc(Cl)ccc1Cl was tested. Which IC50 did it give?
Answer: > 32 µM

System: LU-134-A
Assay: cells
Assay type: functional, cell-based, Homo sapiens
Details: Homo sapiens, LU-134-A
Description: SANGER: Inhibition of human LU-134-A cell growth in a cell viability assay.

Question: Which IC50 does the source give for Cc1cc([N+](=O)[O-])ccc1NS(=O)(=O)c1cc(Cl)ccc1Cl here?
Answer: > 32 µM

System: A388;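 note: growth inhibition of human A388 cells, read out with a cell viability assay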
Assay: cells
Assay type: functional, cell-based, Homo sapiens
Details: Homo sapiens, A388
Description: SANGER: Inhibition of human A388 cell growth in a cell viability assay.

Question: Which IC50 does the source give for Cc1cc([N+](=O)[O-])ccc1NS(=O)(=O)c1cc(Cl)ccc1Cl here?
Answer: 4.93 µM

System: A4-Fuk;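 note: growth inhibition of A4-Fuk cells, read out by a cell viability assay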
Assay: cells
Assay type: functional, cell-based, Homo sapiens
Details: Homo sapiens, A4-Fuk
Description: SANGER: Inhibition of human A4-Fuk cell growth in a cell viability assay.

Question: For Cc1cc([N+](=O)[O-])ccc1NS(=O)(=O)c1cc(Cl)ccc1Cl, which IC50 is on record?
Answer: > 32 µM

System: MMAC-SF;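 note: growth inhibition of human MMAC-SF cells, read out with a cell viability assay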
Assay: cells
Assay type: functional, cell-based, Homo sapiens
Details: Homo sapiens, MMAC-SF
Description: SANGER: Inhibition of human MMAC-SF cell growth in a cell viability assay.

Question: How did the IC50 turn out when Cc1cc([N+](=O)[O-])ccc1NS(=O)(=O)c1cc(Cl)ccc1Cl was run?
Answer: 3.92 µM

System: MEG-01;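 note: growth inhibition of MEG-01 cells, read out by a cell viability assay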
Assay: cells
Assay type: functional, cell-based, Homo sapiens
Details: Homo sapiens, MEG-01
Description: SANGER: Inhibition of human MEG-01 cell growth in a cell viability assay.

Question: How did the IC50 turn out when Cc1cc([N+](=O)[O-])ccc1NS(=O)(=O)c1cc(Cl)ccc1Cl was run?
Answer: > 32 µM

System: NCI-H1838;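 note: growth inhibition of NCI-H1838 cells, determined with a cell viability readout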
Assay: cells
Assay type: functional, cell-based, Homo sapiens
Details: Homo sapiens, NCI-H1838
Description: SANGER: Inhibition of human NCI-H1838 cell growth in a cell viability assay.

Question: Cc1cc([N+](=O)[O-])ccc1NS(=O)(=O)c1cc(Cl)ccc1Cl was tested. Which IC50 did it give?
Answer: > 32 µM

System: HCE-4;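 note: cell viability assay measuring inhibition of growth in the human HCE-4 cell line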
Assay: cells
Assay type: functional, cell-based, Homo sapiens
Details: Homo sapiens, HCE-4
Description: SANGER: Inhibition of human HCE-4 cell growth in a cell viability assay.

Question: How did the IC50 turn out when Cc1cc([N+](=O)[O-])ccc1NS(=O)(=O)c1cc(Cl)ccc1Cl was run?
Answer: 5.45 µM

System: EKVX;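 note: growth inhibition of human EKVX cells, read out with a cell viability assay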
Assay: cells
Assay type: functional, cell-based, Homo sapiens
Details: Homo sapiens, EKVX
Description: SANGER: Inhibition of human EKVX cell growth in a cell viability assay.

Question: How did the IC50 turn out when Cc1cc([N+](=O)[O-])ccc1NS(=O)(=O)c1cc(Cl)ccc1Cl was run?
Answer: 7.56 µM

System: IST-MES1;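 note: growth inhibition of IST-MES1 cells, measured with a cell viability assay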
Assay: cells
Assay type: functional, cell-based, Homo sapiens
Details: Homo sapiens, IST-MES1
Description: SANGER: Inhibition of human IST-MES1 cell growth in a cell viability assay.

Question: With Cc1cc([N+](=O)[O-])ccc1NS(=O)(=O)c1cc(Cl)ccc1Cl as the compound, how does the IC50 read?
Answer: 4.85 µM

System: HCC1187;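 note: growth inhibition of HCC1187 cells, read out with a cell viability assay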
Assay: cells
Assay type: functional, cell-based, Homo sapiens
Details: Homo sapiens, HCC1187
Description: SANGER: Inhibition of human HCC1187 cell growth in a cell viability assay.

Question: With Cc1cc([N+](=O)[O-])ccc1NS(=O)(=O)c1cc(Cl)ccc1Cl as the compound, how does the IC50 read?
Answer: 20.8 µM

System: HD-MY-Z;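 note: growth inhibition of HD-MY-Z cells, read out with a cell viability assay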
Assay: cells
Assay type: functional, cell-based, Homo sapiens
Details: Homo sapiens, HD-MY-Z
Description: SANGER: Inhibition of human HD-MY-Z cell growth in a cell viability assay.

Question: With Cc1cc([N+](=O)[O-])ccc1NS(=O)(=O)c1cc(Cl)ccc1Cl as the compound, how does the IC50 read?
Answer: 14.3 µM

System: OS-RC-2;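 note: growth inhibition of human OS-RC-2 cells, measured by a cell viability assay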
Assay: cells
Assay type: functional, cell-based, Homo sapiens
Details: Homo sapiens, OS-RC-2
Description: SANGER: Inhibition of human OS-RC-2 cell growth in a cell viability assay.

Question: For Cc1cc([N+](=O)[O-])ccc1NS(=O)(=O)c1cc(Cl)ccc1Cl, which IC50 is on record?
Answer: 6.75 µM

System: CW-2;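 note: growth inhibition of CW-2 cells, read out by a cell viability assay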
Assay: cells
Assay type: functional, cell-based, Homo sapiens
Details: Homo sapiens, CW-2
Description: SANGER: Inhibition of human CW-2 cell growth in a cell viability assay.

Question: How did the IC50 turn out when Cc1cc([N+](=O)[O-])ccc1NS(=O)(=O)c1cc(Cl)ccc1Cl was run?
Answer: > 32 µM

System: KM-H2;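 note: growth inhibition of KM-H2 cells, read out by a cell viability assay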
Assay: cells
Assay type: functional, cell-based, Homo sapiens
Details: Homo sapiens, KM-H2
Description: SANGER: Inhibition of human KM-H2 cell growth in a cell viability assay.

Question: For Cc1cc([N+](=O)[O-])ccc1NS(=O)(=O)c1cc(Cl)ccc1Cl, which IC50 is on record?
Answer: 14.9 µM

System: NCI-H209;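 note: growth inhibition of human NCI-H209 cells, measured by a cell viability assay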
Assay: cells
Assay type: functional, cell-based, Homo sapiens
Details: Homo sapiens, NCI-H209
Description: SANGER: Inhibition of human NCI-H209 cell growth in a cell viability assay.

Question: Which IC50 does the source give for Cc1cc([N+](=O)[O-])ccc1NS(=O)(=O)c1cc(Cl)ccc1Cl here?
Answer: > 32 µM

System: NCI-H1155;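 note: cell growth inhibition measured by a viability assay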
Assay: cells
Assay type: functional, cell-based, Homo sapiens
Details: Homo sapiens, NCI-H1155
Description: SANGER: Inhibition of human NCI-H1155 cell growth in a cell viability assay.

Question: How did the IC50 turn out when Cc1cc([N+](=O)[O-])ccc1NS(=O)(=O)c1cc(Cl)ccc1Cl was run?
Answer: > 32 µM

System: PSN1;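 note: suppression of growth of human PSN1 cells, read out by a cell viability assay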
Assay: cells
Assay type: functional, cell-based, Homo sapiens
Details: Homo sapiens, PSN1
Description: SANGER: Inhibition of human PSN1 cell growth in a cell viability assay.

Question: Which IC50 does the source give for Cc1cc([N+](=O)[O-])ccc1NS(=O)(=O)c1cc(Cl)ccc1Cl here?
Answer: 3.22 µM

System: SF-539;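 note: Read-out is a cell viability assay, with IC50 reflecting inhibition of cell growth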
Assay: cells
Assay type: functional, cell-based, Homo sapiens
Details: Homo sapiens, SF-539
Description: SANGER: Inhibition of human SF539 cell growth in a cell viability assay.

Question: For Cc1cc([N+](=O)[O-])ccc1NS(=O)(=O)c1cc(Cl)ccc1Cl, which IC50 is on record?
Answer: 21 µM

System: COLO-320-HSR;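 note: growth inhibition of COLO-320-HSR cells, determined with a cell viability assay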
Assay: cells
Assay type: functional, cell-based, Homo sapiens
Details: Homo sapiens, COLO-320-HSR
Description: SANGER: Inhibition of human COLO-320-HSR cell growth in a cell viability assay.

Question: Cc1cc([N+](=O)[O-])ccc1NS(=O)(=O)c1cc(Cl)ccc1Cl was tested. Which IC50 did it give?
Answer: 17.6 µM

System: SHP77;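 note: growth inhibition of human SHP-77 cells measured by a cell viability assay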
Assay: cells
Assay type: functional, cell-based, Homo sapiens, SHP-77
Details: Homo sapiens, SHP77
Description: SANGER: Inhibition of human SHP-77 cell growth in a cell viability assay.

Question: Which IC50 does the source give for Cc1cc([N+](=O)[O-])ccc1NS(=O)(=O)c1cc(Cl)ccc1Cl here?
Answer: 22.9 µM

System: HL-60;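 note: growth inhibition of human HL-60 cells, read out with a cell viability assay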
Assay: cells
Assay type: functional, cell-based, Homo sapiens
Details: Homo sapiens, HL-60
Description: SANGER: Inhibition of human HL-60 cell growth in a cell viability assay.

Question: For Cc1cc([N+](=O)[O-])ccc1NS(=O)(=O)c1cc(Cl)ccc1Cl, which IC50 is on record?
Answer: 3.79 µM

System: NCI-H23;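 note: cell viability assay measuring growth inhibition of NCI-H23 cells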
Assay: cells
Assay type: functional, cell-based, Homo sapiens
Details: Homo sapiens, NCI-H23
Description: SANGER: Inhibition of human NCI-H23 cell growth in a cell viability assay.

Question: How did the IC50 turn out when Cc1cc([N+](=O)[O-])ccc1NS(=O)(=O)c1cc(Cl)ccc1Cl was run?
Answer: > 32 µM

System: KE-37;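 note: growth inhibition of KE-37 cells, read out with a cell viability assay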
Assay: cells
Assay type: functional, cell-based, Homo sapiens
Details: Homo sapiens, KE-37
Description: SANGER: Inhibition of human KE-37 cell growth in a cell viability assay.

Question: Which IC50 does the source give for Cc1cc([N+](=O)[O-])ccc1NS(=O)(=O)c1cc(Cl)ccc1Cl here?
Answer: > 32 µM

System: SW 954;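 note: growth inhibition of SW954 human cancer cells, read out as cell viability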
Assay: cells
Assay type: functional, cell-based, Homo sapiens
Details: Homo sapiens, SW 954
Description: SANGER: Inhibition of human SW954 cell growth in a cell viability assay.

Question: How did the IC50 turn out when Cc1cc([N+](=O)[O-])ccc1NS(=O)(=O)c1cc(Cl)ccc1Cl was run?
Answer: 7.26 µM

System: LB373-MEL-D;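 note: growth inhibition of the cell line, read out in a cell viability assay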
Assay: cells
Assay type: functional, cell-based, Homo sapiens
Details: Homo sapiens, LB373-MEL-D
Description: SANGER: Inhibition of human LB373-MEL-D cell growth in a cell viability assay.

Question: Which IC50 does the source give for Cc1cc([N+](=O)[O-])ccc1NS(=O)(=O)c1cc(Cl)ccc1Cl here?
Answer: 2.86 µM

System: LB2241-RCC;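 note: cell viability assay measuring how strongly the cultured human renal carcinoma line is prevented from growing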
Assay: cells
Assay type: functional, cell-based, Homo sapiens
Details: Homo sapiens, LB2241-RCC
Description: SANGER: Inhibition of human LB2241-RCC cell growth in a cell viability assay.

Question: For Cc1cc([N+](=O)[O-])ccc1NS(=O)(=O)c1cc(Cl)ccc1Cl, which IC50 is on record?
Answer: 2.61 µM

System: KURAMOCHI;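 note: growth inhibition of KURAMOCHI cells, read out with a cell viability assay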
Assay: cells
Assay type: functional, cell-based, Homo sapiens
Details: Homo sapiens, KURAMOCHI
Description: SANGER: Inhibition of human KURAMOCHI cell growth in a cell viability assay.

Question: With Cc1cc([N+](=O)[O-])ccc1NS(=O)(=O)c1cc(Cl)ccc1Cl as the compound, how does the IC50 read?
Answer: 1.33 µM

System: KINGS-1;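 note: cell viability assay measuring suppression of KINGS-1 cell growth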
Assay: cells
Assay type: functional, cell-based, Homo sapiens
Details: Homo sapiens, KINGS-1
Description: SANGER: Inhibition of human KINGS-1 cell growth in a cell viability assay.

Question: Which IC50 does the source give for Cc1cc([N+](=O)[O-])ccc1NS(=O)(=O)c1cc(Cl)ccc1Cl here?
Answer: > 32 µM

System: GI-1;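 note: growth inhibition of human GI-1 cells, measured with a cell viability readout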
Assay: cells
Assay type: functional, cell-based, Homo sapiens
Details: Homo sapiens, GI-1
Description: SANGER: Inhibition of human GI-1 cell growth in a cell viability assay.

Question: Which IC50 does the source give for Cc1cc([N+](=O)[O-])ccc1NS(=O)(=O)c1cc(Cl)ccc1Cl here?
Answer: 1.43 µM

System: RKO;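 note: growth inhibition of human RKO cells, read out with a cell viability assay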
Assay: cells
Assay type: functional, cell-based, Homo sapiens
Details: Homo sapiens, RKO
Description: SANGER: Inhibition of human RKO cell growth in a cell viability assay.

Question: Cc1cc([N+](=O)[O-])ccc1NS(=O)(=O)c1cc(Cl)ccc1Cl was tested. Which IC50 did it give?
Answer: 2.21 µM

System: KG-1;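 note: growth inhibition of KG-1 cells, read out by a cell viability assay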
Assay: cells
Assay type: functional, cell-based, Homo sapiens
Details: Homo sapiens, KG-1
Description: SANGER: Inhibition of human KG-1 cell growth in a cell viability assay.

Question: Which IC50 does the source give for Cc1cc([N+](=O)[O-])ccc1NS(=O)(=O)c1cc(Cl)ccc1Cl here?
Answer: 7 µM

System: MC116;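 note: growth inhibition of MC116 cells, read out with a cell viability assay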
Assay: cells
Assay type: functional, cell-based, Homo sapiens
Details: Homo sapiens, MC116
Description: SANGER: Inhibition of human MC116 cell growth in a cell viability assay.

Question: How did the IC50 turn out when Cc1cc([N+](=O)[O-])ccc1NS(=O)(=O)c1cc(Cl)ccc1Cl was run?
Answer: 3.14 µM

System: MLMA;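 note: growth inhibition of MLMA cells (human), determined through a cell viability readout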
Assay: cells
Assay type: functional, cell-based, Homo sapiens
Details: Homo sapiens, MLMA
Description: SANGER: Inhibition of human MLMA cell growth in a cell viability assay.

Question: How did the IC50 turn out when Cc1cc([N+](=O)[O-])ccc1NS(=O)(=O)c1cc(Cl)ccc1Cl was run?
Answer: 8.96 µM

System: NCI-H1770;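 note: growth inhibition of NCI-H1770 cells determined with a viability readout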
Assay: cells
Assay type: functional, cell-based, Homo sapiens
Details: Homo sapiens, NCI-H1770
Description: SANGER: Inhibition of human NCI-H1770 cell growth in a cell viability assay.

Question: Which IC50 does the source give for Cc1cc([N+](=O)[O-])ccc1NS(=O)(=O)c1cc(Cl)ccc1Cl here?
Answer: 17.1 µM

System: Mo
Assay: cells
Assay type: functional, cell-based, Homo sapiens
Details: Homo sapiens, Mo
Description: SANGER: Inhibition of human Mo-T cell growth in a cell viability assay.

Question: Cc1cc([N+](=O)[O-])ccc1NS(=O)(=O)c1cc(Cl)ccc1Cl was tested. Which IC50 did it give?
Answer: > 32 µM

System: MOLT-4;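 note: growth inhibition of MOLT-4 cells, determined with a cell viability readout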
Assay: cells
Assay type: functional, cell-based, Homo sapiens
Details: Homo sapiens, MOLT-4
Description: SANGER: Inhibition of human MOLT-4 cell growth in a cell viability assay.

Question: For Cc1cc([N+](=O)[O-])ccc1NS(=O)(=O)c1cc(Cl)ccc1Cl, which IC50 is on record?
Answer: > 32 µM

System: K562
Assay: cells
Assay type: functional, cell-based, Homo sapiens
Details: Homo sapiens, K562
Description: SANGER: Inhibition of human K-562 cell growth in a cell viability assay.

Question: With Cc1cc([N+](=O)[O-])ccc1NS(=O)(=O)c1cc(Cl)ccc1Cl as the compound, how does the IC50 read?
Answer: 26.9 µM

System: EW-16;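 note: growth inhibition of human EW-16 cells, read out as cell viability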
Assay: cells
Assay type: functional, cell-based, Homo sapiens
Details: Homo sapiens, EW-16
Description: SANGER: Inhibition of human EW-16 cell growth in a cell viability assay.

Question: Cc1cc([N+](=O)[O-])ccc1NS(=O)(=O)c1cc(Cl)ccc1Cl was tested. Which IC50 did it give?
Answer: 4.59 µM

System: DJM-1;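 note: growth inhibition of human DJM-1 cells, read out by a cell viability assay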
Assay: cells
Assay type: functional, cell-based, Homo sapiens
Details: Homo sapiens, DJM-1
Description: SANGER: Inhibition of human DJM-1 cell growth in a cell viability assay.

Question: With Cc1cc([N+](=O)[O-])ccc1NS(=O)(=O)c1cc(Cl)ccc1Cl as the compound, how does the IC50 read?
Answer: 10.5 µM

System: NOS-1;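 note: growth inhibition of the human NOS-1 cell line, read out with a cell viability assay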
Assay: cells
Assay type: functional, cell-based, Homo sapiens
Details: Homo sapiens, NOS-1
Description: SANGER: Inhibition of human NOS-1 cell growth in a cell viability assay.

Question: With Cc1cc([N+](=O)[O-])ccc1NS(=O)(=O)c1cc(Cl)ccc1Cl as the compound, how does the IC50 read?
Answer: 2.06 µM

System: LU-139
Assay: cells
Assay type: functional, cell-based, Homo sapiens
Details: Homo sapiens, LU-139
Description: SANGER: Inhibition of human LU-139 cell growth in a cell viability assay.

Question: Which IC50 does the source give for Cc1cc([N+](=O)[O-])ccc1NS(=O)(=O)c1cc(Cl)ccc1Cl here?
Answer: 12.9 µM

System: RCC10RGB;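 note: growth inhibition of human RCC10RGB cells, read out by a cell viability assay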
Assay: cells
Assay type: functional, cell-based, Homo sapiens
Details: Homo sapiens, RCC10RGB
Description: SANGER: Inhibition of human RCC10RGB cell growth in a cell viability assay.

Question: With Cc1cc([N+](=O)[O-])ccc1NS(=O)(=O)c1cc(Cl)ccc1Cl as the compound, how does the IC50 read?
Answer: > 32 µM

System: KS-1;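 note: growth inhibition of KS-1 cells, read out with a cell viability assay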
Assay: cells
Assay type: functional, cell-based, Homo sapiens
Details: Homo sapiens, KS-1
Description: SANGER: Inhibition of human KS-1 cell growth in a cell viability assay.

Question: For Cc1cc([N+](=O)[O-])ccc1NS(=O)(=O)c1cc(Cl)ccc1Cl, which IC50 is on record?
Answer: 12.6 µM

System: ES5;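 note: growth inhibition of human ES5 cells, read out by a cell viability assay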
Assay: cells
Assay type: functional, cell-based, Homo sapiens
Details: Homo sapiens, ES5
Description: SANGER: Inhibition of human ES5 cell growth in a cell viability assay.

Question: How did the IC50 turn out when Cc1cc([N+](=O)[O-])ccc1NS(=O)(=O)c1cc(Cl)ccc1Cl was run?
Answer: > 32 µM

System: ES8;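 note: growth inhibition of human ES8 cells, read out with a cell viability assay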
Assay: cells
Assay type: functional, cell-based, Homo sapiens
Details: Homo sapiens, ES8
Description: SANGER: Inhibition of human ES8 cell growth in a cell viability assay.

Question: With Cc1cc([N+](=O)[O-])ccc1NS(=O)(=O)c1cc(Cl)ccc1Cl as the compound, how does the IC50 read?
Answer: 8.95 µM

System: no-10;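 note: growth inhibition of no-10 cells, read out with a cell viability assay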
Assay: cells
Assay type: functional, cell-based, Homo sapiens
Details: Homo sapiens
Description: SANGER: Inhibition of human no-10 cell growth in a cell viability assay.

Question: Which IC50 does the source give for Cc1cc([N+](=O)[O-])ccc1NS(=O)(=O)c1cc(Cl)ccc1Cl here?
Answer: > 32 µM

System: TK-10;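 note: growth inhibition of TK-10 cells, read out in a cell viability assay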
Assay: cells
Assay type: functional, cell-based, Homo sapiens
Details: Homo sapiens, TK-10
Description: SANGER: Inhibition of human TK10 cell growth in a cell viability assay.

Question: Cc1cc([N+](=O)[O-])ccc1NS(=O)(=O)c1cc(Cl)ccc1Cl was tested. Which IC50 did it give?
Answer: 10.2 µM

System: NTERA-2-cl-D1;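 note: inhibition of cell growth, measured with a cell viability assay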
Assay: cells
Assay type: functional, cell-based, Homo sapiens
Details: Homo sapiens, NTERA-2-cl-D1
Description: SANGER: Inhibition of human NTERA-S-cl-D1 cell growth in a cell viability assay.

Question: How did the IC50 turn out when Cc1cc([N+](=O)[O-])ccc1NS(=O)(=O)c1cc(Cl)ccc1Cl was run?
Answer: 1.43 µM
